Patent US4416884A, “Piperazinylbenzoheterocyclic compounds” (Otsuka Pharmaceutical Co., Ltd., priority 1978, dated 1983)
Values after ≈ are worked out from the molar mass of the structure shown. Read-outs that look alike come from different tables or passages of the source.

Experiments:
[1] = test system: Bacillus subtilis PCI 219; assay: antimicrobial activity, serial dilution method on agar plate; assay type: cell-based
Method in brief: (§1)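 Two inoculum levels used: 1×10^8 cells/ml (O.D. 660 mμ = 0.07–0.16) and a diluted 1×10^6 cells/ml preparation. Minimum inhibitory concentrations in mcg/ml read from serial dilution on Heart Infusion agar plates.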

[2] = test system: Enterobacter aerogenes IFO 12979; assay: as above; assay type: cell-based; details: Klebsiella aerogenes
Method in brief: as §1

[3] = test system: Klebsiella pneumoniae ST-101; assay: as above; assay type: cell-based
Method in brief: as §1

Klebsiella pneumoniae = assay: as above; assay type: cell-based
Method in brief: as §1

[4] = test system: Proteus morganii IID Kono; assay: as above; assay type: cell-based; details: Morganella morganii
Method in brief: as §1

Proteus rettgeri NIH 96 = assay: as above; assay type: cell-based; details: Providencia rettgeri
Method in brief: as §1

[5] = test system: Proteus vulgaris IID OX-19; assay: as above; assay type: cell-based; details: read-out: Minimum Inhibitory Concentration
Method in brief: as §1

[6] = test system: Pseudomonas aeruginosa ATCC 10145; assay: as above; assay type: cell-based
Method in brief: as §1

[7] = test system: Pseudomonas aeruginosa E-2; assay: as above; assay type: cell-based
Method in brief: as §1

[8] = test system: Pseudomonas aeruginosa NCTC 10490; assay: as above; assay type: cell-based
Method in brief: as §1

[9] = test system: Serattia marcescens IFO 12648; assay: as above; assay type: cell-based
Method in brief: as §1

Shigella Sonnei EW 33 = assay: as above; assay type: cell-based; details: read-out: Minimum Inhibitory Concentration
Method in brief: as §1

[10] = test system: Staphylococcus aureus FDA 209 P; assay: as above; assay type: cell-based
Method in brief: as §1

[11] = test system: Streptococcus pneumoniae Type III; assay: as above; assay type: cell-based
Method in brief: as §1

[12] = test system: Streptococcus pneumoniae Type II; assay: as above; assay type: cell-based
Method in brief: as §1

[13] = test system: Streptococcus pneumoniae Type I; assay: as above; assay type: cell-based
Method in brief: as §1

[14] = test system: Streptococcus pyogenes IID Cook; assay: as above; assay type: cell-based
Method in brief: as §1

[15] = test system: Streptococcus pyogenes IID S-23; assay: as above; assay type: cell-based
Method in brief: as §1

in vitro = details: human
Description: A 1/15 mol/l phosphate buffer was added to powder of Moni-Trol 1 (dehydrated preparation of human serum, a product of Midori Juji Co., Ltd.) to prepare a composition having the same serum protein concentration as natural human serum and this preparation was labeled "100% human serum", an aliquot of the "100% human serum" preparation was mixed with the same volume of the above buffer to prepare "50% human serum" and another aliquot was mixed with 4 times as much as its volume of the buffer to prepare "20% human serum".

[16] = test system: Test Organism 1 (Escherichia Coli NIHJ); assay: influence of the addition of horse serum on the MIC; assay type: cell-based
[17] = test system: Test Organism 27 (Streptococcus pneumoniae Type III); assay: as above; assay type: cell-based
[18] = read-out: Minimum Inhibitory Concentration, inoculum 1 × 10^6 cells/ml
[19] = read-out: Minimum Inhibitory Concentration, inoculum 1 × 10^8 cells/ml
[20] = inoculum 1 × 10^6 cells/ml, read-out: Minimum Inhibitory Concentration
[21] = inoculum 1 × 10^8 cells/ml, read-out: Minimum Inhibitory Concentration
[22] = horse serum 0%, inoculum 10^6, read-out: Minimum Inhibitory Concentration
[23] = horse serum 0%, inoculum 10^8, read-out: Minimum Inhibitory Concentration
[24] = horse serum 10%, inoculum 10^6, read-out: Minimum Inhibitory Concentration
[25] = horse serum 10%, inoculum 10^8, read-out: Minimum Inhibitory Concentration
[26] = horse serum 20%, inoculum 10^6, read-out: Minimum Inhibitory Concentration
[27] = horse serum 20%, inoculum 10^8, read-out: Minimum Inhibitory Concentration
[28] = horse serum 40%, inoculum 10^6, read-out: Minimum Inhibitory Concentration
[29] = horse serum 40%, inoculum 10^8, read-out: Minimum Inhibitory Concentration

CCn1cc(C(=O)O)c(=O)c2ccc(C)nc21 [E]
MIC ([1]; PCI219, read-out: Minimum Inhibitory Concentration, inoculum 1 × 10^6 cells/ml): 3.1 µg/mL (≈ 13.3 µM)
MIC ([1]; PCI219, read-out: Minimum Inhibitory Concentration, inoculum 1 × 10^8 cells/ml): 6.3 µg/mL (≈ 27.1 µM)
MIC ([2]; IFO12979, read-out: Minimum Inhibitory Concentration, inoculum 1 × 10^6 cells/ml): 3.1 µg/mL (≈ 13.3 µM)
MIC ([2]; IFO12979, read-out: Minimum Inhibitory Concentration, inoculum 1 × 10^8 cells/ml): 6.3 µg/mL (≈ 27.1 µM)
MIC ([3]; ST101, read-out: Minimum Inhibitory Concentration, inoculum 1 × 10^6 cells/ml): 1.6 µg/mL (≈ 6.89 µM)
MIC ([3]; ST101, read-out: Minimum Inhibitory Concentration, inoculum 1 × 10^8 cells/ml): 1.6 µg/mL (≈ 6.89 µM)
MIC (Klebsiella pneumoniae; [18]): 3.1 µg/mL (≈ 13.3 µM)
MIC (Klebsiella pneumoniae; [19]): 3.1 µg/mL (≈ 13.3 µM)
MIC [4, 18]: 3.1 µg/mL (≈ 13.3 µM)
MIC [4, 19]: 6.3 µg/mL (≈ 27.1 µM)
MIC (Proteus rettgeri NIH 96; NIH96, read-out: Minimum Inhibitory Concentration, inoculum 1 × 10^6 cells/ml): 0.8 µg/mL (≈ 3.44 µM)
MIC (Proteus rettgeri NIH 96; NIH96, read-out: Minimum Inhibitory Concentration, inoculum 1 × 10^8 cells/ml): 1.6 µg/mL (≈ 6.89 µM)
MIC ([5]; IIDOX19, inoculum 1 × 10^6 cells/ml): 3.1 µg/mL (≈ 13.3 µM)
MIC ([5]; IIDOX19, inoculum 1 × 10^8 cells/ml): 3.1 µg/mL (≈ 13.3 µM)
MIC ([6]; ATCC10145, read-out: Minimum Inhibitory Concentration, inoculum 1 × 10^6 cells/ml): > 100 µg/mL
MIC ([6]; ATCC10145, read-out: Minimum Inhibitory Concentration, inoculum 1 × 10^8 cells/ml): > 100 µg/mL
MIC ([7]; E2, read-out: Minimum Inhibitory Concentration, inoculum 1 × 10^6 cells/ml): > 100 µg/mL
MIC ([7]; E2, read-out: Minimum Inhibitory Concentration, inoculum 1 × 10^8 cells/ml): > 100 µg/mL
MIC ([8]; NCTC10490, read-out: Minimum Inhibitory Concentration, inoculum 1 × 10^6 cells/ml): > 100 µg/mL
MIC ([8]; NCTC10490, read-out: Minimum Inhibitory Concentration, inoculum 1 × 10^8 cells/ml): > 100 µg/mL
MIC [9, 18]: 3.1 µg/mL (≈ 13.3 µM)
MIC [9, 19]: 3.1 µg/mL (≈ 13.3 µM)
MIC (Shigella Sonnei EW 33; inoculum 1 × 10^6 cells/ml): 3.1 µg/mL (≈ 13.3 µM)
MIC (Shigella Sonnei EW 33; inoculum 1 × 10^8 cells/ml): 3.1 µg/mL (≈ 13.3 µM)
MIC ([10]; FDA209, read-out: Minimum Inhibitory Concentration, inoculum 1 × 10^6 cells/ml): 50 µg/mL (≈ 215 µM)
MIC ([10]; FDA209, read-out: Minimum Inhibitory Concentration, inoculum 1 × 10^8 cells/ml): 50 µg/mL (≈ 215 µM)
MIC [11, 18]: > 100 µg/mL
MIC [11, 19]: > 100 µg/mL
MIC [12, 18]: > 100 µg/mL
MIC [12, 19]: > 100 µg/mL
MIC [13, 18]: > 100 µg/mL
MIC [13, 19]: > 100 µg/mL
MIC [14, 18]: > 100 µg/mL
MIC [14, 19]: > 100 µg/mL
MIC ([15]; IIDS23, read-out: Minimum Inhibitory Concentration, inoculum 1 × 10^6 cells/ml): > 100 µg/mL
MIC ([15]; IIDS23, read-out: Minimum Inhibitory Concentration, inoculum 1 × 10^8 cells/ml): > 100 µg/mL
fraction unbound at 2 h (in vitro; 10% human serum): 0.528
fraction unbound at 2 h (in vitro; 10% human serum, Inactivation Ratio): 0.587
fraction unbound at 2 h (in vitro; 20% human serum): 0.608
fraction unbound at 2 h (in vitro; 20% human serum, Inactivation Ratio): 0.565
fraction unbound at 2 h (in vitro; 50% human serum): 0.376
fraction unbound at 2 h (in vitro; 50% human serum, Inactivation Ratio): 0.387
fraction unbound at 2 h (in vitro; 100% human serum): 0.24
fraction unbound at 2 h (in vitro; 100% human serum, Inactivation Ratio): 0.387

CC1CCc2cc(F)cc3c(=O)c(C(=O)O)cn1c23 (stereo not drawn) [F]
MIC ([1]; PCI219, inoculum 1 × 10^6 cells/ml, read-out: Minimum Inhibitory Concentration): 0.2 µg/mL (≈ 0.766 µM)
MIC ([1]; PCI219, inoculum 1 × 10^8 cells/ml, read-out: Minimum Inhibitory Concentration): 0.4 µg/mL (≈ 1.53 µM)
MIC ([2]; IFO12979, inoculum 1 × 10^6 cells/ml, read-out: Minimum Inhibitory Concentration): 0.2 µg/mL (≈ 0.766 µM)
MIC ([2]; IFO12979, inoculum 1 × 10^8 cells/ml, read-out: Minimum Inhibitory Concentration): 0.4 µg/mL (≈ 1.53 µM)
MIC ([3]; ST101, inoculum 1 × 10^6 cells/ml, read-out: Minimum Inhibitory Concentration): 0.1 µg/mL (≈ 0.383 µM)
MIC ([3]; ST101, inoculum 1 × 10^8 cells/ml, read-out: Minimum Inhibitory Concentration): 0.2 µg/mL (≈ 0.766 µM)
MIC (Klebsiella pneumoniae; [20]): 0.4 µg/mL (≈ 1.53 µM)
MIC (Klebsiella pneumoniae; [21]): 0.8 µg/mL (≈ 3.06 µM)
MIC [4, 20]: 0.4 µg/mL (≈ 1.53 µM)
MIC [4, 21]: 0.8 µg/mL (≈ 3.06 µM)
MIC (Proteus rettgeri NIH 96; NIH96, inoculum 1 × 10^6 cells/ml, read-out: Minimum Inhibitory Concentration): 0.1 µg/mL (≈ 0.383 µM)
MIC (Proteus rettgeri NIH 96; NIH96, inoculum 1 × 10^8 cells/ml, read-out: Minimum Inhibitory Concentration): 0.2 µg/mL (≈ 0.766 µM)
MIC ([6]; ATCC10145, inoculum 1 × 10^6 cells/ml, read-out: Minimum Inhibitory Concentration): 12.5 µg/mL (≈ 47.8 µM)
MIC ([6]; ATCC10145, inoculum 1 × 10^8 cells/ml, read-out: Minimum Inhibitory Concentration): 25 µg/mL (≈ 95.7 µM)
MIC ([7]; E2, inoculum 1 × 10^6 cells/ml, read-out: Minimum Inhibitory Concentration): 50 µg/mL (≈ 191 µM)
MIC ([7]; E2, inoculum 1 × 10^8 cells/ml, read-out: Minimum Inhibitory Concentration): 50 µg/mL (≈ 191 µM)
MIC ([8]; NCTC10490, inoculum 1 × 10^6 cells/ml, read-out: Minimum Inhibitory Concentration): 12.5 µg/mL (≈ 47.8 µM)
MIC ([8]; NCTC10490, inoculum 1 × 10^8 cells/ml, read-out: Minimum Inhibitory Concentration): 25 µg/mL (≈ 95.7 µM)
MIC [9, 20]: 0.4 µg/mL (≈ 1.53 µM)
MIC [9, 21]: 0.8 µg/mL (≈ 3.06 µM)
MIC (Shigella Sonnei EW 33; inoculum 1 × 10^6 cells/ml): 0.8 µg/mL (≈ 3.06 µM)
MIC (Shigella Sonnei EW 33; inoculum 1 × 10^8 cells/ml): 0.8 µg/mL (≈ 3.06 µM)
MIC ([10]; FDA209, inoculum 1 × 10^6 cells/ml, read-out: Minimum Inhibitory Concentration): 1.6 µg/mL (≈ 6.12 µM)
MIC ([10]; FDA209, inoculum 1 × 10^8 cells/ml, read-out: Minimum Inhibitory Concentration): 3.1 µg/mL (≈ 11.9 µM)
MIC [11, 21]: > 100 µg/mL
MIC [12, 21]: > 100 µg/mL
MIC [13, 21]: > 100 µg/mL
MIC [14, 21]: > 100 µg/mL
MIC ([15]; IIDS23, inoculum 1 × 10^6 cells/ml, read-out: Minimum Inhibitory Concentration): > 100 µg/mL
MIC ([15]; IIDS23, inoculum 1 × 10^8 cells/ml, read-out: Minimum Inhibitory Concentration): > 100 µg/mL
MIC [16, 22]: 1.6 µg/mL (≈ 6.12 µM)
MIC [16, 23]: 1.6 µg/mL (≈ 6.12 µM)
MIC [16, 24]: 3.1 µg/mL (≈ 11.9 µM)
MIC [16, 25]: 3.1 µg/mL (≈ 11.9 µM)
MIC [16, 26]: 3.1 µg/mL (≈ 11.9 µM)
MIC [16, 27]: 6.3 µg/mL (≈ 24.1 µM)
MIC [16, 28]: 12.5 µg/mL (≈ 47.8 µM)
MIC [16, 29]: 12.5 µg/mL (≈ 47.8 µM)
MIC [17, 22]: 50 µg/mL (≈ 191 µM)
MIC [17, 23]: 50 µg/mL (≈ 191 µM)
MIC [17, 24]: 50 µg/mL (≈ 191 µM)
MIC [17, 25]: > 50 µg/mL
MIC [17, 26]: 50 µg/mL (≈ 191 µM)
MIC [17, 27]: > 50 µg/mL
MIC [17, 28]: 50 µg/mL (≈ 191 µM)
MIC [17, 29]: > 50 µg/mL
